pIC50: −log10 of the molar value. Where two headings read alike, the source gives them in different places.
Key:
[1] = Enzymatic degradation of enkephalin analogs (half-life)
MVD (δ-receptor) = target: T1, MVD (δ-receptor) (Mus musculus, UniProt P32300); assay: cell-based
T1 construct: The vas is then mounted under 0.5 g tension in a 5 ml organ bath; from tissue; host or cells: mouse vas deferens (Swiss Webster)

SSTR2 receptor = assay: Inhibition of radioligand binding to cloned somatostatin receptor SSTR2; settings: for pIC50: cloned receptor, radioligand binding, read-out: SSTR2 receptor binding constant IC50
SSTR4 receptor = assay: Inhibition of radioligand binding to cloned somatostatin receptor SSTR4; settings: for pIC50: cloned receptor, radioligand binding, read-out: SSTR4 receptor binding constant IC50
δ receptor = δ receptor (Homo sapiens, UniProt P41143); assay: δ-Binding, replacement of 3H-naltrindole
Chain of δ receptor (P41143 whole entry): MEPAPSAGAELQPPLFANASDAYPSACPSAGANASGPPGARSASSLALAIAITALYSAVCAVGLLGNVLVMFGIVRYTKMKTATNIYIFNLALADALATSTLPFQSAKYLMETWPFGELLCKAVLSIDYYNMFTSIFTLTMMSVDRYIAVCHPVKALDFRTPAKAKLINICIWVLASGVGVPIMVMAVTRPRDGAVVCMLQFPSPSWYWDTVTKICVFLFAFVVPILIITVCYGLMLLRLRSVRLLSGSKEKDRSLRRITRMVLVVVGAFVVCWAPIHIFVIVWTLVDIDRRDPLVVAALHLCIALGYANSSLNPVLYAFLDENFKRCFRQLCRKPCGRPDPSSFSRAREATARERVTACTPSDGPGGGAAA

[2] = inhibition of electrically evoked twitch of mouse vas deferens, read-out: MVD IC50

T1 sequence (P32300 whole entry): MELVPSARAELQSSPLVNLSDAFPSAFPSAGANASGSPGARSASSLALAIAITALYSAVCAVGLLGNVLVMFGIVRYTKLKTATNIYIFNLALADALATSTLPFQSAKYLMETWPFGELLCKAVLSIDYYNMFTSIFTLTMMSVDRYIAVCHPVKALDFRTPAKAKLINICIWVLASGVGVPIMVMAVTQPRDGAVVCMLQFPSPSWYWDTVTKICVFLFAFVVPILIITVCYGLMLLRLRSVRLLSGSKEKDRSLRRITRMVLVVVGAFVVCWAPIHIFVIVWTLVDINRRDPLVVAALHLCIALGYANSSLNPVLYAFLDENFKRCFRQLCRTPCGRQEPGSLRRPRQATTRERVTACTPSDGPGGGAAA

NC(=O)[C@@H]1CSSC[C@@H](NC(=O)[C@@H](N)Cc2ccc(O)cc2)C(=O)NCC(=O)N[C@@H](Cc2ccccc2)C(=O)N1 [Disulfide-enkephalin, reference compound]
half-life [1]: 5.53 h

NC(=O)[C@H]1CSC[C@@H](NC(=O)[C@@H](N)Cc2ccc(O)cc2)C(=O)NCC(=O)N[C@@H](Cc2ccccc2)C(=O)N1 [Tyr-c[D-AlaL-Gly-Phe-D-AlaL]-NH2]
pIC50 (MVD (δ-receptor); [2]): 8.78

H-D-Phe-c[AlaLPhe-D-Trp-Lys-Thr-AlaL]-Thr-NH2
pIC50 (SSTR2 receptor): 8.00 | selectivity for SSTR4 (SSTR2/SSTR4 IC50) compared with the octapeptide alcohols (SSTR4 receptor): four times | pIC50 (SSTR4 receptor): 9.30

N[C@@H](Cc1ccc(O)cc1)C(=O)N[C@@H]1CSC[C@@H](C(=O)O)NC(=O)[C@H](Cc2ccccc2)NC(=O)CNC1=O [Tyr-c[D-AlaL-Gly-Phe-L-AlaL]-OH]
pIC50 (MVD (δ-receptor)): 9.80 | pIC50 (δ receptor): 9.00

H-D-Phe-c[AlaLPhe-D-Trp-Lys-Thr-AlaL]-Thr-ol
pIC50 (SSTR2 receptor): 8.30 | pIC50 (SSTR4 receptor): 9.00

C[C@H](N)C(=O)NCC(=O)N[C@H]1CSSC[C@@H](C(=O)O)NC(=O)[C@H](CO)NC(=O)[C@H]([C@@H](C)O)NC(=O)[C@H](Cc2ccccc2)NC(=O)[C@H]([C@@H](C)O)NC(=O)[C@H](CCCCN)NC(=O)[C@H](Cc2c[nH]c3ccccc23)NC(=O)[C@H](Cc2ccccc2)NC(=O)[C@H](Cc2ccccc2)NC(=O)[C@H](CC(N)=O)NC(=O)[C@H](CCCCN)NC1=O [Somatostatin-14, reference compound]
pIC50 (SSTR2 receptor): 9.55 | pIC50 (SSTR4 receptor): 9.07

Sandostatin [reference compound]
pIC50 (SSTR2 receptor): 8.62 | pIC50 (SSTR4 receptor): 9.24

NC(=O)[C@@H]1CSC[C@@H](NC(=O)[C@@H](N)Cc2ccc(O)cc2)C(=O)NCC(=O)N[C@@H](Cc2ccccc2)C(=O)N1 [Tyr-c[D-AlaL-Gly-Phe-L-AlaL]-NH2]
pIC50 (MVD (δ-receptor); [2]): 9.27 | pIC50 (δ receptor): 8.15

NC(=O)[C@@H]1CSC[C@@H](NC(=O)[C@@H](N)Cc2ccc(O)cc2)C(=O)NCC(=O)N[C@@H](Cc2ccccc2)C(=O)N1 [Lanthionine-enkephalin]
half-life [1]: 20.4 h

c[AlaL3, AlaL14]-Somatostatin-14
affinity/potency on SSTR2, in words (SSTR2 receptor): same binding affinity | pIC50 (SSTR2 receptor): 9.52

H-D-Phe-c[AlaLPhe-D-Trp-Lys-Thr-AlaL]-OH
pIC50 (SSTR4 receptor): 6.30
